According to publication PMC8333425, “Discovery of a dual Ras and ARF6 inhibitor from a GPCR endocytosis screen” (Nature Communications, 2021):

Legend:
Experiment in all cases: KINOMEscan kinase binding assay
[1] = molecular target: T1, 384 kinases from the human genome (Homo sapiens, UniProt Q9P289); conditions: kinase MST4 (Entrez MST4)
T1 construct: purchased Eurofin/DiscoverX
Summary of the method: (§1)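 A panel of 384 human kinases was profiled by KINOMEscan binding in the presence of 10 µM compound. Kinase–ligand binding was given as percent of DMSO control, averaged from duplicates in a single run, with an S(10) selectivity score.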

[2] = molecular target: T2, 384 kinases from the human genome (Homo sapiens, UniProt Q13882); conditions: kinase BRK (Entrez PTK6)
T2 construct: purchased Eurofin/DiscoverX
Summary of the method: as §1

[3] = molecular target: T3, 384 kinases from the human genome (Homo sapiens, UniProt Q16513); conditions: kinase PKN2 (Entrez PKN2)
T3 construct: purchased Eurofin/DiscoverX
Summary of the method: as §1

[4] = molecular target: T4, 384 kinases from the human genome (Homo sapiens, UniProt Q9H4A3); conditions: kinase WNK1 (Entrez WNK1)
T4 construct: purchased Eurofin/DiscoverX
Summary of the method: as §1

[5] = molecular target: T5, 384 kinases from the human genome (Homo sapiens, UniProt P17948); conditions: kinase FLT1 (Entrez FLT1)
T5 construct: purchased Eurofin/DiscoverX
Summary of the method: as §1

[6] = molecular target: T6, 384 kinases from the human genome (Homo sapiens, UniProt P24941); conditions: kinase CDK2 (Entrez CDK2)
T6 construct: purchased Eurofin/DiscoverX
Summary of the method: as §1

[7] = molecular target: T7, 384 kinases from the human genome (Homo sapiens, UniProt Q07912); conditions: kinase TNK2 (Entrez TNK2)
T7 construct: purchased Eurofin/DiscoverX
Summary of the method: as §1

[8] = molecular target: T8, 384 kinases from the human genome (Homo sapiens, UniProt P78356); conditions: kinase PIP5K2B (Entrez PIP4K2B)
T8 construct: purchased Eurofin/DiscoverX
Summary of the method: as §1

[9] = molecular target: T9, 384 kinases from the human genome (Homo sapiens, UniProt P09769); conditions: kinase FGR (Entrez FGR)
T9 construct: purchased Eurofin/DiscoverX
Summary of the method: as §1

[10] = molecular target: T10, 384 kinases from the human genome (Homo sapiens, UniProt O00238); conditions: kinase BMPR1B (Entrez BMPR1B)
T10 construct: purchased Eurofin/DiscoverX
Summary of the method: as §1

[11] = molecular target: T11, 384 kinases from the human genome (Homo sapiens, UniProt O15264); conditions: kinase p38-delta (Entrez MAPK13)
T11 construct: purchased Eurofin/DiscoverX
Summary of the method: as §1

[12] = molecular target: T12, 384 kinases from the human genome (Homo sapiens, UniProt Q13188); conditions: kinase MST2 (Entrez STK3)
T12 construct: purchased Eurofin/DiscoverX
Summary of the method: as §1

[13] = molecular target: T13, 384 kinases from the human genome (Homo sapiens, UniProt P53778); conditions: kinase p38-gamma (Entrez MAPK12)
T13 construct: purchased Eurofin/DiscoverX
Summary of the method: as §1

[14] = molecular target: T14, 384 kinases from the human genome (Homo sapiens, UniProt Q16512); conditions: kinase PKN1 (Entrez PKN1)
T14 construct: purchased Eurofin/DiscoverX
Summary of the method: as §1

[15] = molecular target: T15, 384 kinases from the human genome (Homo sapiens, UniProt O43293); conditions: kinase DAPK3 (Entrez DAPK3)
T15 construct: purchased Eurofin/DiscoverX
Summary of the method: as §1

[16] = molecular target: T16, 384 kinases from the human genome (Homo sapiens, UniProt Q8NEB9); conditions: kinase VPS34 (Entrez PIK3C3)
T16 construct: purchased Eurofin/DiscoverX
Summary of the method: as §1

[17] = molecular target: T17, 384 kinases from the human genome (Homo sapiens, UniProt Q12866); conditions: kinase MERTK (Entrez MERTK)
T17 construct: purchased Eurofin/DiscoverX
Summary of the method: as §1

[18] = molecular target: T18, 384 kinases from the human genome (Homo sapiens, UniProt Q9UPE1); conditions: kinase SRPK3 (Entrez SRPK3)
T18 construct: purchased Eurofin/DiscoverX
Summary of the method: as §1

[19] = molecular target: T19, 384 kinases from the human genome (Homo sapiens, UniProt Q96PY6); conditions: kinase NEK1 (Entrez NEK1)
T19 construct: purchased Eurofin/DiscoverX
Summary of the method: as §1

[20] = molecular target: T20, 384 kinases from the human genome (Homo sapiens, UniProt Q96J92); conditions: kinase WNK4 (Entrez WNK4)
T20 construct: purchased Eurofin/DiscoverX
Summary of the method: as §1

[21] = molecular target: T21, 384 kinases from the human genome (Homo sapiens, UniProt Q00532); conditions: kinase CDKL1 (Entrez CDKL1)
T21 construct: purchased Eurofin/DiscoverX
Summary of the method: as §1

[22] = molecular target: T22, 384 kinases from the human genome (Homo sapiens, UniProt Q86YV6); conditions: kinase MYLK4 (Entrez MYLK4)
T22 construct: purchased Eurofin/DiscoverX
Summary of the method: as §1

[23] = molecular target: T23, 384 kinases from the human genome (Homo sapiens, UniProt P45983); conditions: kinase JNK1 (Entrez MAPK8)
T23 construct: purchased Eurofin/DiscoverX
Summary of the method: as §1

[24] = molecular target: T24, 384 kinases from the human genome (Homo sapiens, UniProt Q02779); conditions: kinase MLK2 (Entrez MAP3K10)
T24 construct: purchased Eurofin/DiscoverX
Summary of the method: as §1

[25] = molecular target: T25, 384 kinases from the human genome (Homo sapiens, UniProt Q9UBF8); conditions: kinase PIK4CB (Entrez PI4KB)
T25 construct: purchased Eurofin/DiscoverX
Summary of the method: as §1

[26] = molecular target: T26, 384 kinases from the human genome (Homo sapiens, UniProt P22455); conditions: kinase FGFR4 (Entrez FGFR4)
T26 construct: purchased Eurofin/DiscoverX
Summary of the method: as §1

[27] = molecular target: T27, 384 kinases from the human genome (Homo sapiens, UniProt O75914); conditions: kinase PAK3 (Entrez PAK3)
T27 construct: purchased Eurofin/DiscoverX
Summary of the method: as §1

T24 sequence (Q02779 whole entry): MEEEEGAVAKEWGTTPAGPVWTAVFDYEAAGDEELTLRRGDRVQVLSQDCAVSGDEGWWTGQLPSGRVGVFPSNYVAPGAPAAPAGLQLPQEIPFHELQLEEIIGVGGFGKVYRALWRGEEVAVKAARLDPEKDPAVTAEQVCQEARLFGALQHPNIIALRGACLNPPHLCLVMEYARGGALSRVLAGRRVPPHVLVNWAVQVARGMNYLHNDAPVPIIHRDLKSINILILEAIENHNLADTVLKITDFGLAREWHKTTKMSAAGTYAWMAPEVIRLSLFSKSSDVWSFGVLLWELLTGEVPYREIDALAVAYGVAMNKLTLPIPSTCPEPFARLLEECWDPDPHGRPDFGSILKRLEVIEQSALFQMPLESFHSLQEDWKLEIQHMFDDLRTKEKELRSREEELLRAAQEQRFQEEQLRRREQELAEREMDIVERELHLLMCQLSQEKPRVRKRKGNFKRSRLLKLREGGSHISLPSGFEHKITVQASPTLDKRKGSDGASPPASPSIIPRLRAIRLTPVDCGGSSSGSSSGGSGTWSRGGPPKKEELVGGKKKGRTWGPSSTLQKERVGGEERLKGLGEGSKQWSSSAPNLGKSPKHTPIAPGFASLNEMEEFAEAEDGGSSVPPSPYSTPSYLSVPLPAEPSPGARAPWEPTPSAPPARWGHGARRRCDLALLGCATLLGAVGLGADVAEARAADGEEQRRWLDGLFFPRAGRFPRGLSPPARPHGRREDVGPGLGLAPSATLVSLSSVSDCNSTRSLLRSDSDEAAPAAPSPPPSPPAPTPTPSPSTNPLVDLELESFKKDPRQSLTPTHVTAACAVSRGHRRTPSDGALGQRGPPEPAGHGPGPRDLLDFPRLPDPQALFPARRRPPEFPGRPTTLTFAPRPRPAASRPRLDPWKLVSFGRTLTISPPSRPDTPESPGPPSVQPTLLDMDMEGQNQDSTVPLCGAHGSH
T9 sequence (P09769 whole entry): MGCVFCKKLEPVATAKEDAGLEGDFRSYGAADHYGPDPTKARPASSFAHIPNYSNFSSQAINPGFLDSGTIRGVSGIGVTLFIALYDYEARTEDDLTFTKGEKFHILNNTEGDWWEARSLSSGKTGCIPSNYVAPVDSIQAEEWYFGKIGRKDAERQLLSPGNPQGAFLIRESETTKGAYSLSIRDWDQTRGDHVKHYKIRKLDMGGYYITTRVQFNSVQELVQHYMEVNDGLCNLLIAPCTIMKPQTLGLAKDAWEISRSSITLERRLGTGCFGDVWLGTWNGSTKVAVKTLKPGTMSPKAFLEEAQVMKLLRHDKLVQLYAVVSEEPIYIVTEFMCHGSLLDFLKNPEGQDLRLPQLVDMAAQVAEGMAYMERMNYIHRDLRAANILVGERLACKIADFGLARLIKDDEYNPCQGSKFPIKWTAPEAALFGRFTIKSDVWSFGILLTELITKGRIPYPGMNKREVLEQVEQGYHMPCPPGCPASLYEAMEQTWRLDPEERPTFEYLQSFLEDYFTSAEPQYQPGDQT
T21 sequence (Q00532 whole entry): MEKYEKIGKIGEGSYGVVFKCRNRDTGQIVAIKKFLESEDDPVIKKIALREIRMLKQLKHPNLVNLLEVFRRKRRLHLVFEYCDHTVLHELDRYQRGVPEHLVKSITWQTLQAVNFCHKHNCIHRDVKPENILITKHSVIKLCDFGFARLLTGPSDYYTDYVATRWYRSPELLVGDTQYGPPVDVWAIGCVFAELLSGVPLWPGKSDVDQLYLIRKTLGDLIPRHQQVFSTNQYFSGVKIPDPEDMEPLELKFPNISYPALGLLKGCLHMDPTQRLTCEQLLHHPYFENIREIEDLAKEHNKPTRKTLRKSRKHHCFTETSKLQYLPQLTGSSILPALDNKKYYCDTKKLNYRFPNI
T15 sequence (O43293 whole entry): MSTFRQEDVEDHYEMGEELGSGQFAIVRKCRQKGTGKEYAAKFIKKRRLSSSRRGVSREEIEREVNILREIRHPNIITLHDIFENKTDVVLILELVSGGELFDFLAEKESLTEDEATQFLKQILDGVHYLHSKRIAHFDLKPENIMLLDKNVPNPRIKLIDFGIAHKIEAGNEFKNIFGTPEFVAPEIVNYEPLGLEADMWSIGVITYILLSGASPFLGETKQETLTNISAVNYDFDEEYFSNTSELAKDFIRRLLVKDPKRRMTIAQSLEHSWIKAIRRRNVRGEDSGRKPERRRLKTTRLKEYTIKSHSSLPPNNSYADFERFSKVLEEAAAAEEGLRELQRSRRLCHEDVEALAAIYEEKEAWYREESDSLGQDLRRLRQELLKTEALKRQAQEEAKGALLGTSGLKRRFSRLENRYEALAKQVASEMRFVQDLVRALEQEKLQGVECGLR
T25 sequence (Q9UBF8 whole entry): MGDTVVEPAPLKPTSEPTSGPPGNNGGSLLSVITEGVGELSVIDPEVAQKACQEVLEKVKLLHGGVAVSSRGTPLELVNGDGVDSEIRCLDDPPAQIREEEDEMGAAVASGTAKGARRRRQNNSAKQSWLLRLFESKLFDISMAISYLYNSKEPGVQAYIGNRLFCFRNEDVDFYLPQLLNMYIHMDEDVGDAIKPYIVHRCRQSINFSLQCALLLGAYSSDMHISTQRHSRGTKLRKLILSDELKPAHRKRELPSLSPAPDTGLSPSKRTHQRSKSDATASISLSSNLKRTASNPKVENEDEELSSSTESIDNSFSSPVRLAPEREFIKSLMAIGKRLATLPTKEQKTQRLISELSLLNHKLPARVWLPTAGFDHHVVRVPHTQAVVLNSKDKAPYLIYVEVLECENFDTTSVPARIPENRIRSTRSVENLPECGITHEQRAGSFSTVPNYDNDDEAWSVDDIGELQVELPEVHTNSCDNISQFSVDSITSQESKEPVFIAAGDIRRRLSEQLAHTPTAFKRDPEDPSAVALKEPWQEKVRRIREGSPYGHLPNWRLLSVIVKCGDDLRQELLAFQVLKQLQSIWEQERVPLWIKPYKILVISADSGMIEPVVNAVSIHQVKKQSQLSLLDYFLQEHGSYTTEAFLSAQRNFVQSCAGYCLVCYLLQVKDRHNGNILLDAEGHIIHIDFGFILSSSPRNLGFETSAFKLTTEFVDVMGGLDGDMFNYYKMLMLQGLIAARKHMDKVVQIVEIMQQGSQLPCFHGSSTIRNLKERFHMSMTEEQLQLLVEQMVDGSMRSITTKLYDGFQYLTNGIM
T19 sequence (Q96PY6 whole entry): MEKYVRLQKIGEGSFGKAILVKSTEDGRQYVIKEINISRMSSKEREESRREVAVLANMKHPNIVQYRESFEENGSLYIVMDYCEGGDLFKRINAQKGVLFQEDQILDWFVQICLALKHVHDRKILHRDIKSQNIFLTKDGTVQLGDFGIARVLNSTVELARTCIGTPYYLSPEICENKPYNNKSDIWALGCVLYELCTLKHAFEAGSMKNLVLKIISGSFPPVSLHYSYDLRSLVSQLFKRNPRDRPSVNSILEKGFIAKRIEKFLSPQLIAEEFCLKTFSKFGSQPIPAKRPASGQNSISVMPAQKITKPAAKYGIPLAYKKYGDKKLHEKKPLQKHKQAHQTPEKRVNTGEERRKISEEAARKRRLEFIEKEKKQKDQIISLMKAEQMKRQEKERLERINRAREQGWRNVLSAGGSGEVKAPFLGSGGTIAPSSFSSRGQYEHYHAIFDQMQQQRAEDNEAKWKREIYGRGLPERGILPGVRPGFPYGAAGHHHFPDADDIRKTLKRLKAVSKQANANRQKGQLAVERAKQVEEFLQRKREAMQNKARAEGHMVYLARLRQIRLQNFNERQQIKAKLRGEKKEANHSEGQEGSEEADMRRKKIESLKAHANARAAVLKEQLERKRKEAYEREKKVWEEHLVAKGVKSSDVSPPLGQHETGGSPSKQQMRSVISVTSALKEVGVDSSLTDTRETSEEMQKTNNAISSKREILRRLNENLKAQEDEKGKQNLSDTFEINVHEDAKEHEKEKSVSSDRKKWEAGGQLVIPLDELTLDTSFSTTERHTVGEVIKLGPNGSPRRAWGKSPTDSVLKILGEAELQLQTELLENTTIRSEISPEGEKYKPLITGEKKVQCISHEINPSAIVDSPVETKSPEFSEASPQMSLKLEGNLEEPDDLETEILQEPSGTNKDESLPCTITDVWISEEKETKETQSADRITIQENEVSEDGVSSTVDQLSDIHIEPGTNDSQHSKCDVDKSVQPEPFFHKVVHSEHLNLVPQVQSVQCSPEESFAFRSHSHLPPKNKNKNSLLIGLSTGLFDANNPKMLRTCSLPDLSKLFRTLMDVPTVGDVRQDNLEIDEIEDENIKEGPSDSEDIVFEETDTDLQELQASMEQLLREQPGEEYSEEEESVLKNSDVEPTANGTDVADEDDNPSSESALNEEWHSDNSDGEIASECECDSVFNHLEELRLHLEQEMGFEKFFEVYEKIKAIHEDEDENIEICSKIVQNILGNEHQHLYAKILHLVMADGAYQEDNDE
T8 sequence (P78356 whole entry): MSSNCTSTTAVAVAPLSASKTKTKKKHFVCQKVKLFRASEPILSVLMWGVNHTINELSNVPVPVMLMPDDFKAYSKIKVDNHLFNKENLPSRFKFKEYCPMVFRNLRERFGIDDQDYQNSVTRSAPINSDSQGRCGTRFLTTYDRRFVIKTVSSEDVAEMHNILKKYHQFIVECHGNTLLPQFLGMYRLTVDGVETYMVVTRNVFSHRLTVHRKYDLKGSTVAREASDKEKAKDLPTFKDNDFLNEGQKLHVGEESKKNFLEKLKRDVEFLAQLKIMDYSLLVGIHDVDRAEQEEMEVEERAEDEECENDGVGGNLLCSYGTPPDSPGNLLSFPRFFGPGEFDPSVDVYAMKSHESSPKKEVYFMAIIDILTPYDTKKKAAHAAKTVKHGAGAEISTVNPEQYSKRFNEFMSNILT

CC(C)C(=O)N1CCN(c2ccc(NC(=O)c3cc4ccccc4o3)cc2Cl)CC1 [Compound 21]
Percent Control [1]: 100% | Percent Control [2]: 88% | Percent Control [3]: 100% | Percent Control [4]: 94% | Percent Control [5]: 87% | Percent Control [6]: 100% | Percent Control [7]: 68% | Percent Control [8]: 83% | Percent Control [9]: 73% | Percent Control [10]: 82% | Percent Control [11]: 88% | Percent Control [12]: 95% | Percent Control [13]: 100% | Percent Control [14]: 94% | Percent Control [15]: 100% | Percent Control [16]: 100% | Percent Control [17]: 70% | Percent Control [18]: 100% | Percent Control [19]: 77% | Percent Control [20]: 100% | Percent Control [21]: 100% | Percent Control [22]: 99% | Percent Control [23]: 63% | Percent Control [24]: 96% | Percent Control [25]: 74% | Percent Control [26]: 91% | Percent Control [27]: 92%
